This is an account of results in PMC11527692, “Tailored biosynthesis of diosmin through reconstitution of the flavonoid pathway in Nicotiana benthamiana” (Frontiers in Plant Science, 2024).

One experiment addresses T1, Cs1,6RhaT (Citrus sinensis, UniProt A7ISD3).
T1 sequence (A7ISD3 1-475): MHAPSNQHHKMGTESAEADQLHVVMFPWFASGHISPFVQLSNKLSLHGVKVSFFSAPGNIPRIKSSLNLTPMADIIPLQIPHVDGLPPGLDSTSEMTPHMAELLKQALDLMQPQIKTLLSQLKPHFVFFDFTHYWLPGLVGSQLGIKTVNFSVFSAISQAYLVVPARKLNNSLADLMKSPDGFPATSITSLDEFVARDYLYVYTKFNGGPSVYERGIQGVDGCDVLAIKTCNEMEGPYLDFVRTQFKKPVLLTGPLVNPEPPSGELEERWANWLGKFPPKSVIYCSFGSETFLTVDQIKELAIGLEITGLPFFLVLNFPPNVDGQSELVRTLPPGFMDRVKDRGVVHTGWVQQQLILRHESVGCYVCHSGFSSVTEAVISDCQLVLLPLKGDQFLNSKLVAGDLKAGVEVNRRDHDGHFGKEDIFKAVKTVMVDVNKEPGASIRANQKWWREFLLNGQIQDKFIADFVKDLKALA
The experiment is described as follows: substrate feeding of E. coli expressing the GST fusion, UPLC-DAD-QToF/MS of product. The experiment is classed as cell-based. To be noted: product diosmin; 100 μM substrate, 28 °C, 3 h; whole culture.

Another experiment deals with T2, PaF4′OMT (Plagiochasma appendiculatum, UniProt A0A1X9Y2Y6).
T2 sequence (A0A1X9Y2Y6 1-391): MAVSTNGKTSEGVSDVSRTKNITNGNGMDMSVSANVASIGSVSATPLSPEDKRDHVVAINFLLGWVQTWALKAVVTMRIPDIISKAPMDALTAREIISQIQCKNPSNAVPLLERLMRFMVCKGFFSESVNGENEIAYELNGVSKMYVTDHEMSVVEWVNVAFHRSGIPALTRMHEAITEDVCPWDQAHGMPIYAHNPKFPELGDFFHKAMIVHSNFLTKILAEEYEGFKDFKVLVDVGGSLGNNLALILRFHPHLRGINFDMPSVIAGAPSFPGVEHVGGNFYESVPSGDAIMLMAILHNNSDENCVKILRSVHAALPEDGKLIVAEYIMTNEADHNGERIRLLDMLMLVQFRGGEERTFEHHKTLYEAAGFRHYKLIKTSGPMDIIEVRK
The experiment is described as follows: substrate feeding of E. coli expressing the GST fusion, HPLC of product. The experiment is classed as cell-based. As to conditions: product diosmetin; 100 μM substrate (methods name diosmetin, results name luteolin), 28 °C, 3 h; whole culture.

For the compound `COc1ccc(-c2cc(=O)c3c(O)cc(O[C@@H]4O[C@H](CO)[C@@H](O)[C@H](O)[C@H]4O)cc3o2)cc1O` [diosmetin 7-O-β-D-glucopyranoside], the “substrate feeding of E. coli expressing the GST fusion, UPLC-DAD-QToF/MS of prod” value at Cs1,6RhaT was “the cells expressing Cs1,6RhaT produced the most diosmin”.

`O=c1cc(-c2ccc(O)c(O)c2)oc2cc(O)cc(O)c12` [luteolin]: the “substrate feeding of E. coli expressing the GST fusion, HPLC of product” value on PaF4′OMT is reported as “PaF4′OMT produced the most diosmetin from luteolin”.
